Source: patent publication US20260378560A1, “APPROACHES TO DESIGNING AND PERFORMING COMPRESSED BIOLOGICAL EXPERIMENTS AND SYSTEMS FOR IMPLEMENTING THE SAME” (EXVIVO LABS INC., priority 2023, published 2026)

These molecules were tested on REH (assay: Cell viability (CellTiter Glo), compressed perturbation pools with informed pool design, MAX-based deconvolution, REH). Settings: REH, None (measured individually), informed pool design table.
Procedure: (§1) Total cell viability was measured for each sample using an ATP-based luminescence assay (i.e., CellTiter Glo). Each cancer drug was then screened at multiple concentrations ranging from one nM to ten μM in order to generate a dose-response curve and calculate a DRS for each cancer cell line.
(§2) Each cancer drug was cultured with target cells individually. At the end of the screen, samples were either analyzed individually or compressed into pools for analysis. The library was compressed alphabetically into ten cohorts, each of which contained seven cancer drugs present in three out of the seven pools, as shown in Table VII. Said another way, the screening platform 210 generated a “7 pick 3” compressed library by assigning the cancer drugs among different pools. […] The library was also compressed into ten cohorts with pools designed based on information known about each cancer drug, as shown in Table VIII. After cell viability measurement and DRS calculation, the DRS of each cancer drug in the samples generated based on the pools were deconvoluted and compared to the DRS for each cancer drug measured individually.
(§3) In parallel to the exemplary sample compression screen covered in Table VII, perturbations were compressed into pools and then screened. The pools were designed using drug class as a feature with two compression rules (or simply “rules”). The first rule required that drugs from the same class be separated into different cohorts (i.e., mutually exclusive groups of pools). […] A benefit of compressing perturbations is the ability to measure additive, antagonistic, and synergistic effects between drugs in the same pool. However, these effects can negatively impact deconvolution of individual drug effects. Therefore, combinations of drugs for which evidence of clinical toxicity exists can be assigned to different pools in accordance with an informed pooling operation. As new preclinical or clinical evidence of toxic combinations becomes available, the rules implemented by the screening platform 210—and more specifically, its algorithm for compressing members of a library—can be updated accordingly.
(§4) In MAX-based deconvolution, an assumption of neutrality between the compressed perturbations is made. In other words, the perturbation with the largest effect is assumed to be masking the effects, if any, of the other perturbations in the pool. For SUM- and MAX-based deconvolution, qualitative deconvolution is first performed to rank the perturbations in each pool based on size of expected effect. Qualitative deconvolution, as described above, ranks the perturbations in a pool from largest effect size to smallest effect size. The ranking is based on the overlap of each perturbation's unique subset of pools with the highest and lowest measured pools. The perturbation with the largest effect is expected to be present in the pools with the highest measured signal or corresponding metric (e.g., DRS), while the perturbation with the smallest effect is expected to be present in the pools with the lowest measured signal or corresponding metric (e.g., DRS).
(§5) For MAX-based deconvolution, the highest ranked perturbation in the rank order is first assigned an effect size based on the pool with the lowest measured signal or corresponding metric (e.g., DRS) that it is present in. Said another way, the screening platform 210 can identify the highest ranked perturbation in the rank order and then assign an effect size based on the measured signal or corresponding metric (e.g., DRS) of the “weakest” pool in which the highest ranked perturbation is included. The screening platform 210 can repeat this step for the next highest ranked perturbation, and so on until the measurements for each pool have been assigned to one of the perturbations. The effects for the remaining perturbations can be assigned a value of zero, since it is assumed that their effect is masked by the perturbation with the largest effect in each pool.
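Wherever DRS from MAX-based deconvolution is given: higher DRS means a larger drug effect.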

| Compound | DRS |
| --- | --- |
| Nc1cc(F)ccc1NC(=O)c1ccc(CNC(=O)/C=C/c2cccnc2)cc1 [Tucidinostat] | 2.40 |
| C[C@H](Nc1ncnc2nc[nH]c12)c1cc2cccc(Cl)c2c(=O)n1-c1ccccc1 [Duvelisib] | 2.58 |
| CN(C)C(=O)c1cc2cnc(Nc3ccc(N4CCNCC4)cn3)nc2n1C1CCCC1 [Ribociclib] | 12.67 |
| COC(=O)N[C@@H](C)CNc1nccc(-c2cn(C(C)C)nc2-c2cc(Cl)cc(NS(C)(=O)=O)c2F)n1 [Encorafenib] | 0.70 |
| O=C(Nc1cnn2ccc(N3CCC[C@@H]3c3cc(F)ccc3F)nc12)N1CC[C@H](O)C1 [Larotrectinib] | 0.74 |
| C[C@]12CC[C@H](O)CC1=CC[C@@H]1[C@@H]2CC[C@]2(C)C(c3cccnc3)=CC[C@@H]12 [Abiraterone] | 0.20 |
| COc1cc2c(Nc3ccc(Br)cc3F)ncnc2cc1OCC1CCN(C)CC1 [Vandetanib] | 7.39 |
| CCc1cc2c(cc1N1CCC(N3CCOCC3)CC1)C(C)(C)c1[nH]c3cc(C#N)ccc3c1C2=O [Alectinib] | 0.00 |

Same assay, conditions: REH, Samples, 7 Pick 3 informed perturbation pools

| Compound | DRS from MAX-based deconvolution |
| --- | --- |
| Nc1cc(F)ccc1NC(=O)c1ccc(CNC(=O)/C=C/c2cccnc2)cc1 [Tucidinostat] | 0.00 |
| C[C@H](Nc1ncnc2nc[nH]c12)c1cc2cccc(Cl)c2c(=O)n1-c1ccccc1 [Duvelisib] | 3.75 |
| CN(C)C(=O)c1cc2cnc(Nc3ccc(N4CCNCC4)cn3)nc2n1C1CCCC1 [Ribociclib] | 14.44 |
| COC(=O)N[C@@H](C)CNc1nccc(-c2cn(C(C)C)nc2-c2cc(Cl)cc(NS(C)(=O)=O)c2F)n1 [Encorafenib] | 0.00 |
| O=C(Nc1cnn2ccc(N3CCC[C@@H]3c3cc(F)ccc3F)nc12)N1CC[C@H](O)C1 [Larotrectinib] | 0.00 |
| C[C@]12CC[C@H](O)CC1=CC[C@@H]1[C@@H]2CC[C@]2(C)C(c3cccnc3)=CC[C@@H]12 [Abiraterone] | 0.00 |
| COc1cc2c(Nc3ccc(Br)cc3F)ncnc2cc1OCC1CCN(C)CC1 [Vandetanib] | 9.02 |
| CCc1cc2c(cc1N1CCC(N3CCOCC3)CC1)C(C)(C)c1[nH]c3cc(C#N)ccc3c1C2=O [Alectinib] | 0.00 |

Each molecule was assayed on REH (assay: Cell viability (CellTiter Glo), library of cancer drugs, individual or sample compression with randomized (alphabetical) pools, REH). Settings: REH, None (measured individually).
Format: cell-based
Procedure: as §1, §2
(§6) In SUM-based deconvolution, an assumption of additivity is used to quantify the individual effects of each perturbation on each target. Additivity implies that each perturbation effect on each target is positively contributing to the overall effect measured for that pool. This is an accurate assumption for certain experiments, such as when targets or samples are compressed. When targets are pooled—or when samples containing different targets are pooled—the effect of each perturbation on each individual target is diluted. In other words, each perturbation has an isolated effect on a target in culture, and the sum total of the isolated effects are measured when pooled. Therefore, SUM-based deconvolution breaks down the sum total measured for a pool and assigns estimated fractional effects to each compressed perturbation or target in the pool. The screening platform 210 used SUM-based deconvolution for all target and sample compression experiments described above.

| Compound | DRS |
| --- | --- |
| Nc1cc(F)ccc1NC(=O)c1ccc(CNC(=O)/C=C/c2cccnc2)cc1 [Tucidinostat] | 10.87 |
| C[C@H](Nc1ncnc2nc[nH]c12)c1cc2cccc(Cl)c2c(=O)n1-c1ccccc1 [Duvelisib] | 0.00 |
| CN(C)C(=O)c1cc2cnc(Nc3ccc(N4CCNCC4)cn3)nc2n1C1CCCC1 [Ribociclib] | 0.84 |
| COC(=O)N[C@@H](C)CNc1nccc(-c2cn(C(C)C)nc2-c2cc(Cl)cc(NS(C)(=O)=O)c2F)n1 [Encorafenib] | 1.84 |
| O=C(Nc1cnn2ccc(N3CCC[C@@H]3c3cc(F)ccc3F)nc12)N1CC[C@H](O)C1 [Larotrectinib] | 0.00 |
| C[C@]12CC[C@H](O)CC1=CC[C@@H]1[C@@H]2CC[C@]2(C)C(c3cccnc3)=CC[C@@H]12 [Abiraterone] | 0.27 |
| COc1cc2c(Nc3ccc(Br)cc3F)ncnc2cc1OCC1CCN(C)CC1 [Vandetanib] | 3.01 |
| CCc1cc2c(cc1N1CCC(N3CCOCC3)CC1)C(C)(C)c1[nH]c3cc(C#N)ccc3c1C2=O [Alectinib] | 0.20 |

Same assay, conditions: REH, Samples, 7 Pick 3 randomized (alphabetical) sample pools

| Compound | DRS from deconvolution |
| --- | --- |
| Nc1cc(F)ccc1NC(=O)c1ccc(CNC(=O)/C=C/c2cccnc2)cc1 [Tucidinostat] | 11.23 |
| C[C@H](Nc1ncnc2nc[nH]c12)c1cc2cccc(Cl)c2c(=O)n1-c1ccccc1 [Duvelisib] | 0.00 |
| CN(C)C(=O)c1cc2cnc(Nc3ccc(N4CCNCC4)cn3)nc2n1C1CCCC1 [Ribociclib] | 0.00 |
| COC(=O)N[C@@H](C)CNc1nccc(-c2cn(C(C)C)nc2-c2cc(Cl)cc(NS(C)(=O)=O)c2F)n1 [Encorafenib] | 2.10 |
| O=C(Nc1cnn2ccc(N3CCC[C@@H]3c3cc(F)ccc3F)nc12)N1CC[C@H](O)C1 [Larotrectinib] | 0.00 |
| C[C@]12CC[C@H](O)CC1=CC[C@@H]1[C@@H]2CC[C@]2(C)C(c3cccnc3)=CC[C@@H]12 [Abiraterone] | 0.29 |
| COc1cc2c(Nc3ccc(Br)cc3F)ncnc2cc1OCC1CCN(C)CC1 [Vandetanib] | 2.79 |
| CCc1cc2c(cc1N1CCC(N3CCOCC3)CC1)C(C)(C)c1[nH]c3cc(C#N)ccc3c1C2=O [Alectinib] | 0.00 |

What follows are molecules tested on MOLT-4 (assay: Cell viability (CellTiter Glo), library of cancer drugs, individual or sample compression with randomized (alphabetical) pools, MOLT-4). Settings: MOLT-4, None (measured individually).
Format: cell-based
Procedure: as §1, §2, §6

| Compound | DRS |
| --- | --- |
| Nc1cc(F)ccc1NC(=O)c1ccc(CNC(=O)/C=C/c2cccnc2)cc1 [Tucidinostat] | 6.77 |
| C[C@H](Nc1ncnc2nc[nH]c12)c1cc2cccc(Cl)c2c(=O)n1-c1ccccc1 [Duvelisib] | 0.00 |
| CN(C)C(=O)c1cc2cnc(Nc3ccc(N4CCNCC4)cn3)nc2n1C1CCCC1 [Ribociclib] | 0.24 |
| COC(=O)N[C@@H](C)CNc1nccc(-c2cn(C(C)C)nc2-c2cc(Cl)cc(NS(C)(=O)=O)c2F)n1 [Encorafenib] | 0.24 |
| O=C(Nc1cnn2ccc(N3CCC[C@@H]3c3cc(F)ccc3F)nc12)N1CC[C@H](O)C1 [Larotrectinib] | 0.00 |
| C[C@]12CC[C@H](O)CC1=CC[C@@H]1[C@@H]2CC[C@]2(C)C(c3cccnc3)=CC[C@@H]12 [Abiraterone] | 0.27 |
| COc1cc2c(Nc3ccc(Br)cc3F)ncnc2cc1OCC1CCN(C)CC1 [Vandetanib] | 3.01 |
| CCc1cc2c(cc1N1CCC(N3CCOCC3)CC1)C(C)(C)c1[nH]c3cc(C#N)ccc3c1C2=O [Alectinib] | 0.00 |

Same assay, conditions: MOLT-4, Samples, 7 Pick 3 randomized (alphabetical) sample pools

| Compound | DRS from deconvolution |
| --- | --- |
| Nc1cc(F)ccc1NC(=O)c1ccc(CNC(=O)/C=C/c2cccnc2)cc1 [Tucidinostat] | 7.95 |
| C[C@H](Nc1ncnc2nc[nH]c12)c1cc2cccc(Cl)c2c(=O)n1-c1ccccc1 [Duvelisib] | 0.00 |
| CN(C)C(=O)c1cc2cnc(Nc3ccc(N4CCNCC4)cn3)nc2n1C1CCCC1 [Ribociclib] | 0.00 |
| COC(=O)N[C@@H](C)CNc1nccc(-c2cn(C(C)C)nc2-c2cc(Cl)cc(NS(C)(=O)=O)c2F)n1 [Encorafenib] | 0.21 |
| O=C(Nc1cnn2ccc(N3CCC[C@@H]3c3cc(F)ccc3F)nc12)N1CC[C@H](O)C1 [Larotrectinib] | 0.00 |
| C[C@]12CC[C@H](O)CC1=CC[C@@H]1[C@@H]2CC[C@]2(C)C(c3cccnc3)=CC[C@@H]12 [Abiraterone] | 0.30 |
| COc1cc2c(Nc3ccc(Br)cc3F)ncnc2cc1OCC1CCN(C)CC1 [Vandetanib] | 3.12 |
| CCc1cc2c(cc1N1CCC(N3CCOCC3)CC1)C(C)(C)c1[nH]c3cc(C#N)ccc3c1C2=O [Alectinib] | 0.00 |

The molecules below were run on MOLT-4 (assay: Cell viability (CellTiter Glo), compressed perturbation pools with informed pool design, MAX-based deconvolution, MOLT-4). Settings: MOLT-4, None (measured individually), informed pool design table.
Procedure: as §1, §2, §3, §4, §5

| Compound | DRS |
| --- | --- |
| Nc1cc(F)ccc1NC(=O)c1ccc(CNC(=O)/C=C/c2cccnc2)cc1 [Tucidinostat] | 0.50 |
| C[C@H](Nc1ncnc2nc[nH]c12)c1cc2cccc(Cl)c2c(=O)n1-c1ccccc1 [Duvelisib] | 5.28 |
| CN(C)C(=O)c1cc2cnc(Nc3ccc(N4CCNCC4)cn3)nc2n1C1CCCC1 [Ribociclib] | 9.01 |
| COC(=O)N[C@@H](C)CNc1nccc(-c2cn(C(C)C)nc2-c2cc(Cl)cc(NS(C)(=O)=O)c2F)n1 [Encorafenib] | 4.30 |
| O=C(Nc1cnn2ccc(N3CCC[C@@H]3c3cc(F)ccc3F)nc12)N1CC[C@H](O)C1 [Larotrectinib] | 0.74 |
| C[C@]12CC[C@H](O)CC1=CC[C@@H]1[C@@H]2CC[C@]2(C)C(c3cccnc3)=CC[C@@H]12 [Abiraterone] | 0.00 |
| COc1cc2c(Nc3ccc(Br)cc3F)ncnc2cc1OCC1CCN(C)CC1 [Vandetanib] | 2.19 |
| CCc1cc2c(cc1N1CCC(N3CCOCC3)CC1)C(C)(C)c1[nH]c3cc(C#N)ccc3c1C2=O [Alectinib] | 0.70 |

Same assay, conditions: MOLT-4, Samples, 7 Pick 3 informed perturbation pools

| Compound | DRS from MAX-based deconvolution |
| --- | --- |
| Nc1cc(F)ccc1NC(=O)c1ccc(CNC(=O)/C=C/c2cccnc2)cc1 [Tucidinostat] | 0.00 |
| C[C@H](Nc1ncnc2nc[nH]c12)c1cc2cccc(Cl)c2c(=O)n1-c1ccccc1 [Duvelisib] | 5.28 |
| CN(C)C(=O)c1cc2cnc(Nc3ccc(N4CCNCC4)cn3)nc2n1C1CCCC1 [Ribociclib] | 11.35 |
| COC(=O)N[C@@H](C)CNc1nccc(-c2cn(C(C)C)nc2-c2cc(Cl)cc(NS(C)(=O)=O)c2F)n1 [Encorafenib] | 0.00 |
| O=C(Nc1cnn2ccc(N3CCC[C@@H]3c3cc(F)ccc3F)nc12)N1CC[C@H](O)C1 [Larotrectinib] | 0.00 |
| C[C@]12CC[C@H](O)CC1=CC[C@@H]1[C@@H]2CC[C@]2(C)C(c3cccnc3)=CC[C@@H]12 [Abiraterone] | 0.00 |
| COc1cc2c(Nc3ccc(Br)cc3F)ncnc2cc1OCC1CCN(C)CC1 [Vandetanib] | 2.51 |
| CCc1cc2c(cc1N1CCC(N3CCOCC3)CC1)C(C)(C)c1[nH]c3cc(C#N)ccc3c1C2=O [Alectinib] | 1.19 |
